From ChEMBL document CHEMBL4330134, “Design, synthesis, and bioevaluation of a novel class of (E)-4-oxo-crotonamide derivatives as potent antituberculosis agents” (Bioorg Med Chem Lett, 2019)
Converted amounts (≈) assume the structure as drawn.

What was measured:
[1] = test system: Mycobacterium tuberculosis; assay: Antimycobacterial activity against Mycobacterium tuberculosis H37Rv ATCC 27294 after 4 days by microplate Alamar blue assay; type: functional; conditions: H37Rv ATCC 27294, 96 h
[2] = test system: Mycobacterium tuberculosis; assay: Antimycobacterial activity against Mycobacterium tuberculosis H37Rv ATCC 27294; type: functional
[3] = Toxicity in po dosed BALB/c mouse; type: organism-based; conditions: in vivo
[4] = test system: Mycobacterium tuberculosis; assay: Antimycobacterial activity against Mycobacterium tuberculosis isolate 19769 after 4 days by microplate Alamar blue assay; type: functional; conditions: isolate 19769, 96 h
[5] = test system: Mycobacterium tuberculosis; assay: Antimycobacterial activity against Mycobacterium tuberculosis isolate 19852 after 4 days by microplate Alamar blue assay; type: functional; conditions: isolate 19852, 96 h
[6] = test system: Mycobacterium tuberculosis; assay: Antimycobacterial activity against Mycobacterium tuberculosis isolate 19675 after 4 days by microplate Alamar blue assay; type: functional; conditions: isolate 19675, 96 h
[7] = test system: Mycobacterium tuberculosis; assay: Antimycobacterial activity against Mycobacterium tuberculosis isolate 11168 after 4 days by microplate Alamar blue assay; type: functional; conditions: isolate 11168, 96 h
[8] = test system: Mycobacterium tuberculosis; assay: Antimycobacterial activity against Mycobacterium tuberculosis isolate 19805 after 4 days by microplate Alamar blue assay; type: functional; conditions: isolate 19805, 96 h
[9] = test system: Mycobacterium tuberculosis; assay: Antimycobacterial activity against Mycobacterium tuberculosis isolate 19863 after 4 days by microplate Alamar blue assay; type: functional; conditions: isolate 19863, 96 h
[10] = test system: Mycobacterium tuberculosis; assay: Antimycobacterial activity against Mycobacterium tuberculosis isolate 19809 after 4 days by microplate Alamar blue assay; type: functional; conditions: isolate 19809, 96 h
[11] = test system: Mycobacterium tuberculosis; assay: Antimycobacterial activity against Mycobacterium tuberculosis isolate 19806 after 4 days by microplate Alamar blue assay; type: functional; conditions: isolate 19806, 96 h
[12] = test system: Mycobacterium tuberculosis; assay: Antimycobacterial activity against Mycobacterium tuberculosis isolate 19874 after 4 days by microplate Alamar blue assay; type: functional; conditions: isolate 19874, 96 h
[13] = test system: Mycobacterium tuberculosis; assay: Antimycobacterial activity against Mycobacterium tuberculosis isolate 19810 after 4 days by microplate Alamar blue assay; type: functional; conditions: isolate 19810, 96 h

SMILES | MIC [1] [µg/mL] | other results
O=C(O)/C=C/C(=O)c1ccccc1 | > 4 | –
COc1ccc(C(=O)/C=C/C(=O)O)cc1 | > 4 | –
COC(=O)/C=C/C(=O)c1ccc(OC)cc1 | 0.25 (≈ 1.14 µM) | MIC [2]: 0.25 µg/mL (≈ 1.14 µM); LD50 [3]: 568 mg/kg
O=C(O)/C=C/C(=O)c1ccc(-c2ccccc2)cc1 | > 4 | –
COc1cccc(C(=O)/C=C/C(=O)O)c1 | > 4 | –
CN(C)C(=O)/C=C/C(=O)c1ccc(-c2ccccc2)cc1 | 0.125 (≈ 0.447 µM) | MIC [4]: 0.43 µg/mL (≈ 1.54 µM); MIC [5]: 0.19 µg/mL (≈ 0.68 µM); MIC [6]: 0.45 µg/mL (≈ 1.61 µM); MIC [7]: 0.05 µg/mL (≈ 0.179 µM); MIC [8]: 0.25 µg/mL (≈ 0.895 µM); MIC [9]: 0.23 µg/mL (≈ 0.823 µM); MIC [10]: 0.48 µg/mL (≈ 1.72 µM); MIC [11]: 0.23 µg/mL (≈ 0.823 µM); MIC [12]: 0.23 µg/mL (≈ 0.823 µM); MIC [13]: 0.12 µg/mL (≈ 0.43 µM)
COc1ccc(C(=O)/C=C/C(=O)O)cc1OC | > 4 | –
COc1ccc(OC)c(C(=O)/C=C/C(=O)O)c1 | > 4 | –
Cc1ccc(C(=O)/C=C/C(=O)O)cc1 | > 4 | –
O=C(O)/C=C/C(=O)c1ccc2c(c1)OCO2 | > 4 | –
O=C(O)/C=C/C(=O)c1ccc2c(c1)CCO2 | > 4 | –
COc1ccccc1C(=O)/C=C/C(=O)O | > 4 | –
CCOc1ccc(C(=O)/C=C/C(=O)O)cc1 | > 4 | –
NNC(=O)c1ccncc1 [ISONIAZID] | 0.025 (≈ 0.182 µM) | –
